Data taken from patent US12577530B2, “Generation of a population of hindbrain cells and hindbrain-like organoids from pluripotent stem cells” (The Regents of the University of California, priority 2018, dated 2026).

Experiments:
WTB and WTC hPSCs = experiment: WNT activation (CHIR 99021) during V2a interneuron differentiation, flow cytometry of CHX10; format: cell-based, human; conditions: 2 μM CHIR99021 pretreatment two days and first 7 days of protocol, compared to untreated (UT) controls
Protocol: To examine pretreatment effects of WNT, hiPSCs were plated onto a Matrigel-coated 24-well plate at 125,000 cells/cm^2 in mTeSR supplemented with 10 μM ROCK inhibitor and 2 μM CHIR99021. Two days later, the cell layers were dissociated with Accutase and the differentiation was performed as described above with the addition of 2 μM CHIR99021. The CHIR99021 treatment was continued until day 7.

hPSCs = experiment: Monolayer hindbrain differentiation with varied pur or RA concentration, flow cytometry of CHX10 and LHX5; format: cell-based, human
Protocol: hPSCs were seeded in mTeSR supplemented with 10 μM ROCK inhibitor and dual SMAD inhibitors 0.2 μM LDN193189 and 10 μM SB431542 (StemGent, Cambridge, MA) at 5,000-100,000 cells/cm^2 onto 24-well plates coated with Matrigel. On day 3, medium was changed to m TeSR supplemented with dual SMAD inhibitors only. On day 5, the base medium was switched to neural induction medium (DMEM F: 12 (Corning, Corning, NY), N2 supplement (Life Technologies, Carlsbad, CA), L-Glutamine (VWR), 2 μg/ml heparin (Sigma Aldrich, St. Louis, MO), non-essential amino acids (Mediatech INC, Manassas, VA), penicillin-streptomycin (VWR) supplemented with fresh 0.4 ug/ml ascorbic acid (Sigma Aldrich) and 10 ng/ml brain derived neurotrophin factor (BDNF, R&D Systems, Minneapolis, MN)) supplemented with dual SMAD inhibitors and 10 nM-10 μM retinoic acid (Sigma Aldrich). On day 7, dual SMAD inhibition was ceased and 10 nM-10 μM retinoic acid, 10 nM-10 μM pur (EMD Millipore, Darmstast, Germany) and 1 μM N—[N-(3,5-difluorophenacetyl)-L-alanyl]-S-phenylglycine t-butyl ester (DAPT) were added to the neural induction medium. Medium was changed every 2-3 days throughout the differentiation, with fresh supplements added each time for up to 17 days.
At day 17 of differentiation, cells were completely dissociated as described in 3.3.3 and stained with the Transcription Factor Buffer Set, which includes a fixation/permeabilization (FP) and wash/permeabilization (WP) buffer (BD Biosciences, Franklin Lakes, NJ). Dissociated samples were first fixed for 45 minutes at 4° C. in the FP buffer followed by a 20-minute block with WP buffer containing 5% normal donkey serum (NDS, Jackson Laboratory, Bay Harbor, ME). Primary antibodies against CHX10, LHX5, PHOX2A, and PHOX2B (Table 1) and the proper matching species isotype control were added into WP buffer containing 2% NDS and incubated at 4° C. for 45 minutes. After two washes with WP buffer, secondary antibodies donkey anti-mouse IgG, ALEXA FLUOR™ 488 (a fluorescent compound; Life Technologies), at a dilution of 1:200, were added to WP buffer and incubated at 4° C. for 45 minutes. After two washes with WP buffer, samples were passed through a 35-μm filter before assessing with a BD ACCURI™ C6 (BD) cytometer (minimum 10,000 events). Cytometry analysis was performed using FlowJo V10 (Flowjo, Ashland, OR).

Human PSCs (organoids) [1] = experiment: 3D organoid hindbrain differentiation, flow cytometry of CHX10, LHX5, PHOX2A, PHOX2B at day 17; format: cell-based
Protocol: Human PSCs were seeded at 125 k cells/cm^2 in mTeSR supplemented with 10 μM ROCK inhibitor and 2 μM CHIR99102. For WNT treated cells, CHIR was supplemented into the media at each feed through day 7. 48 hours later, cell layers were dissociated using Accutase and counted. For organoid culture, 800 μm pyramidal PDMS inserts were placed into 24-well plates. 1 ml mTeSR containing 10 μM ROCK inhibitor was added to the wells containing the molds and the plate was centrifuged at 2,000×g for 3 minutes to get rid of any bubbles. Dissociated cells, either hPSCs or WNT pre-treated cells, were then added slowly into the wells at 10,000 cells per organoid in mTeSR supplemented with 10 μM ROCK inhibitor, 0.2 LDN193189, and 10 μM SB431542 ([…], Cambridge, MA). […] To change the media on the cells for the rest of the differentiation, the organoids were pipetted into a conical and allowed to settle. Old media was aspirated off and new media was used to resuspend the organoids and transfer them back to the 6 well. On day 3, medium was changed to mTeSR supplemented with dual SMAD inhibitors only. […] To dissociate organoid cultures, samples were collected and washed with 1 mL of PBS. The organoids were then transferred to 1 well of a 6-well plate with 2 ml of accutase and incubated on the rotary at 37° C. for 15 minutes. […] The dissociated cells were then transpired to a 15 mL conical and diluted with 3 times the volume of PBS.

Human PSCs (organoids) [2] = experiment: Organoid diameter from phase contrast images; format: cell-based
Protocol: Human PSCs were seeded at 125 k cells/cm^2 in mTeSR supplemented with 10 μM ROCK inhibitor and 2 μM CHIR99102. For WNT treated cells, CHIR was supplemented into the media at each feed through day 7. 48 hours later, cell layers were dissociated using Accutase and counted. For organoid culture, 800 μm pyramidal PDMS inserts were placed into 24-well plates. 1 ml mTeSR containing 10 μM ROCK inhibitor was added to the wells containing the molds and the plate was centrifuged at 2,000×g for 3 minutes to get rid of any bubbles. Dissociated cells, either hPSCs or WNT pre-treated cells, were then added slowly into the wells at 10,000 cells per organoid in mTeSR supplemented with 10 μM ROCK inhibitor, 0.2 LDN193189, and 10 μM SB431542 ([…], Cambridge, MA). […] To change the media on the cells for the rest of the differentiation, the organoids were pipetted into a conical and allowed to settle. Old media was aspirated off and new media was used to resuspend the organoids and transfer them back to the 6 well. On day 3, medium was changed to mTeSR supplemented with dual SMAD inhibitors only. […] Phase contrast images of the organoids were taken using the EVOS® FL Imaging System. The size analysis performed in FIG. 12 was performed manually using Image J. The size analysis performed in FIG. 13 was done using a Python script to first segment the organoids using a watershed segmentation algorithm. […]

organoids = experiment: Calcium imaging of maturing organoids (Ca^2+ fluctuations); format: cell-based, human; conditions: day 33 onward
Protocol: On day 17 of differentiation, organoids were switched to neural maturation medium (BRAINPHYS™ (neurophysiological basal medium) plus SM1 supplement (Stemcell Technologies (Bardy, van den Hurk et al. 2016)) supplemented with 10 ng/ml of BDNF, GDNF, CNTF, and IGF, R&D Systems). Medium was completely changed every 5 days for the remainder of the culture duration.
Endogenous GCaMP6 signal was used to detect calcium flux in differentiations performed with the WTC GCaMP6 cell line. Alternatively, cultures of cells that lacked GCaMP expression were washed with PBS and the medium was replaced with NEUROBASAL™ (neural cell culture medium) plus Fluo4 AM (5 μM, Life Technologies) for 1 hour at 37° C. The cultures were then washed with fresh Neurobasal and allowed to recover for an additional […] at 37° C. before recording on a Zeiss Axio Observer. To assess Ca^2+ fluctuations, cultures were imaged at a rate of 17 frames per second. To analyze the results, ROI were selected by hand using Zen software. For organoids, the outer edge of the tissue was selected and for monolayer cultures, individual neurons were selected. The relative fluorescent units (RFU) measured at the ROIs were processed using Python3. A detrend function with a robust linear regression was performed for normalization and a 4 Hz lowpass Butterworth filter was applied to minimize noise.

[3] = pur 100 nM and RA 100 nM, day 17 (FIG. 12F)

Cc1cnc(-c2cnc(NCCNc3ccc(C#N)cn3)nc2-c2ccc(Cl)cc2Cl)[nH]1 [CHIR 99021, 6-[[2-[[4-(2,4-Dichlorophenyl)-5-(5-methyl-1H-imidazol-2-yl)-2-pyrimidinyl]amino]ethyl]amino]-3-pyridinecarbonitrile]
CHX10 percentage (WTB and WTC hPSCs): increased

CC1=C(/C=C/C(C)=C/C=C/C(C)=C/C(=O)O)C(C)(C)CCC1 [RA, retinoic acid]
RA concentration at which CHX10 percentage peaked (hPSCs; pur constant at 100 nM): 30 to 100 nM
RA concentration at which LHX5 percentage peaked (hPSCs; pur constant at 100 nM): 10 nM

c1ccc2c(Oc3nc(Nc4ccc(N5CCOCC5)cc4)c4ncn(C5CCCCC5)c4n3)cccc2c1 [pur, 9-Cyclohexyl-N-[4-(4-morpholinyl)phenyl]-2-(1-naphthalenyloxy)-9H-purin-6-amine]
LHX5 percentage (hPSCs; at 10 and 30 nM pur compared to 100 nM pur, RA kept at 100 nM, p<0.05): increased
CHX10 percentage (hPSCs; at 30 and 100 nM pur, RA kept at 100 nM, p<0.05): greater
percentages of V2a, V0 and chemosensing subtypes (Human PSCs (organoids) [1]; 10 nM pur, day 17 (FIG. 13D)): low percentages of all subtypes
PHOX2A and PHOX2B percentages (Human PSCs (organoids) [1]; 100 nM and 1 μM pur condition versus 10 nM, day 17): highest
percentage of CHX10 positive cells (Human PSCs (organoids) [1]; 100 nM pur, day 17 (FIG. 13D)): 3.5%
percentage of LHX5 positive cells (Human PSCs (organoids) [1]; 100 nM pur, day 17 (FIG. 13D)): 36.5%
percentage of CHX10 positive cells (Human PSCs (organoids) [1]; 1 μM pur, day 17 (FIG. 13D)): 23.3%
percentage of LHX5 positive cells (Human PSCs (organoids) [1]; 1 μM pur, day 17 (FIG. 13D)): 3.1%
percentage of CHX10^+ cells (Human PSCs (organoids) [1]; [3]): < 5%
percentage of LHX5^+ cells (Human PSCs (organoids) [1]; [3]): ~80%
percentage of PHOX2A^+ cells (Human PSCs (organoids) [1]; [3]): < 5%
percentage of PHOX2B^+ cells (Human PSCs (organoids) [1]; [3]): < 5%
organoid diameter (Human PSCs (organoids) [2]; 10 nM and 100 nM pur groups, throughout the differentiation): ~500 μm
organoid diameter (Human PSCs (organoids) [2]; 1 μM pur group, by day 17): approximately 700 μm
periodic synchronous Ca^2+ fluctuations (organoids; organoids differentiated with 10 nM pur (V0^lowV2a^low)): few periodic synchronous events
periodic synchronous Ca^2+ fluctuations (organoids; organoids differentiated with 100 nM pur (V0^highV2a^low)): more rhythmic overall
periodic synchronous Ca^2+ fluctuations (organoids; organoids differentiated with 1 μM pur (V0^lowV2a^high)): more sporadic
